Patent US20100041760A1, “MONOARYL AMINOTETRALINES” (priority 2008, published 2010)

Experiments:
[1] = test system: DK-PGD2-induced IL-13 production in T helper type 2 (Th2) cells; experiment: DK-PGD2-Induced IL-13 Production Assay in Th2 Cells; format: cell-based; details: human Th2 cells; 500 nM DK-PGD2; 4 hrs at 37° C.; 10% human AB serum; ELISA; read-out: IC50 value, inhibition of IL-13 production
Procedure: Cultures of Th2 cells were established from blood of healthy human volunteers according to the following procedure. Peripheral blood mononuclear cells (PBMC) were first isolated from 50 mL of fresh blood by Ficoll-Hypaque density gradient centrifugation, followed by CD4^+ cell purification using a CD4^+ T Cell Isolation Kit II (from Miltenyi Biotec Inc.). The CD4^+ T cells were then differentiated to Th2 cells by culturing the cells in X-VIVO 15® medium (from Cambrex BioScience Walkersville Inc.) containing 10% human AB serum (serum of blood type AB from Invitrogen Corporation), 50 U/mL of recombinant human interleukin-2 (rhIL-2) (from PeproTech Inc.) and 100 ng/mL of recombinant human interleukin-4 (rhIL-4) (from PeproTech Inc.) for 7 days. The Th2 cells were isolated using a CD294 (CRTH2) MicroBead Kit (from Miltenyi Biotec Inc.) and amplified in X-VIVO 15® medium containing 10% human AB serum and 50 U/mL of rhIL-2 for 2 to 5 weeks. In general, 70% to 80% of the Th2 cells used in the assay are CRTH2-positive when analyzed by fluorescence-activated cell sorting using the BM16 antibody (as previously described) conjugated to phycoerythrin (PE).
To determine cellular inhibitory potency, compounds at various concentrations were incubated with 2.5×10^4 Th2 cells and 500 nM DK-PGD2 for 4 hrs at 37° C. in 200 μL of X-VIVO 15® medium containing 10% human AB serum. […] The spontaneous production of IL-13 by Th2 cells was determined in the absence of DK-PGD2 stimulation and the value was subtracted from that in the presence of each compound for percent inhibition and IC50 calculations.
The percent inhibition of interleukin 13 (IL-13) production for a compound at various concentrations was calculated according to the following formula, [1-(IL-13 production in the presence of compound)/(IL-13 production in the presence of 0.15% DMSO)]×100. The IC50 value, defined as the concentration of a compound that is required for 50% inhibition of IL-13 production, was calculated by fitting the percent inhibition data for 7 concentrations to a sigmoidal dose-response (4 parameter logistic) model in the XLfit® software Excel add-in program [ID Business Solutions Ltd., model 205, where F(x)=(A+(B−A)/(1+((C/x)̂D)))].

[2] = target: T1, thromboxane A2 receptor (TP) (Homo sapiens, UniProt P21731); experiment: Human Thromboxane A2 Receptor Binding Assay; details: human platelets; 10 nM [3H]SQ29548; 1 hour, room temperature
T1 construct: using human platelets as the source of the receptor; from tissue; host or cells: human platelets (whole platelets, 5x10^7 per well)
T1 sequence (P21731 1-343): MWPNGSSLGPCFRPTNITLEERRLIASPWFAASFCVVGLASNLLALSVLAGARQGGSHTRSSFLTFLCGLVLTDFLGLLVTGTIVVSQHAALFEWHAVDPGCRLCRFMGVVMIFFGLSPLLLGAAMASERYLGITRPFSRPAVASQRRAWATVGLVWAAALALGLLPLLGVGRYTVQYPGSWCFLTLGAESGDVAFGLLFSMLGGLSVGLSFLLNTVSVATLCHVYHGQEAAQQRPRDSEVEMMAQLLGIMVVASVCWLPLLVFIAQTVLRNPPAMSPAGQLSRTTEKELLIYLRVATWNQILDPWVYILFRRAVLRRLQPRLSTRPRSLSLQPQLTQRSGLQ
Text: The thromboxane A2 receptor (TP) plays a key role in hemostasis as its abnormality leads to bleeding disorders. To avoid the potential liability of bleeding disorders, the binding activity of certain compounds of the present invention against TP was monitored by a receptor binding assay using human platelets as the source of the receptor and [^3H]SQ29548 (generically named (5Z)-[5,6-^3H]-7-[(1S,2R,3R,4R)-3-[[2-[(phenylamino)carbonyl]hydrazinyl]methyl]-7-oxabicyclo[2.2.1]hept-2-yl]-5-heptenoic acid, from PerkinElmer Inc.) as the competing radioactive ligand.
The TP binding reactions (0.2 mL) were performed in 96-well plates at room temperature in PBS containing 5×10^7 platelets, 10 mM MgCl2, 0.06% BSA, 10 nM [^3H]SQ29548, and the test compound at various concentrations. After 1 hour of binding reactions, the platelets were harvested on GF/B filter plates (as previously described from PerkinElmer Inc.) and washed 5 times with PBS using a Filtermate™ Harvester (as previously described from PerkinElmer Inc.). The radioactivities bound to the platelets were determined using a microplate scintillation counter (TopCount® NXT, from PerkinElmer Inc.) after adding 50 μL of Microscint™ 20 scintillation fluid (from PerkinElmer Inc.) to each well of the filter plates. The radioactivity from non-specific binding was determined by replacing the compound with 10 μM of ramatroban (BAY-u3405, from Cayman Chemical Company) in the reaction mixtures. The radioactivity bound to the platelets in the absence of compound (total binding) was determined by replacing the compound with 0.25% of DMSO in the reaction mixture. Specific binding data were obtained by subtracting the radioactivity of non-specific binding from each binding data.
The IC50 value is defined as the concentration of the tested compound that is required for 50% inhibition of total specific binding. In order to calculate the IC50 value, the percent inhibition data were determined for 7 concentrations for each compound. The percent inhibition for a compound at each concentration was calculated according to the following formula, [1−(specific binding in the presence of compound)/(total specific binding)]×100. The IC50 value was then obtained by fitting the percent inhibition data to a sigmoidal dose-response (4 parameter logistic) model in the XLfit® software Excel add-in program [from ID Business Solutions Ltd., model 205, where F(x)=(A+(B−A)/(1+((C/x)̂D)))].

IC50 [1] [µM]	IC50 [2] [µM]	SMILES
4.84	> 10	CCOc1cc(C(F)(F)F)cc(S(=O)(=O)N(C)[C@@H]2CCCc3c(OCC(=O)O)cccc32)c1 [Example 9-2, {(R)-5-[(3-ethoxy-5-trifluoromethyl-benzenesulfonyl)-methyl-amino]-5,6,7,8-tetrahydro-naphthalen-1-yloxy}-acetic acid]
5.09	8.52	CN([C@@H]1CCCc2c(OCC(=O)O)cccc21)S(=O)(=O)c1cc(OC2CCCC2)cc(C(F)(F)F)c1 [Example 9-3, {(R)-5-[(3-cyclopentyloxy-5-trifluoromethyl-benzenesulfonyl)-methyl-amino]-5,6,7,8-tetrahydro-naphthalen-1-yloxy}-acetic acid]
4.65	> 10	CN([C@@H]1CCCc2c(OCC(=O)O)cccc21)S(=O)(=O)c1cc(F)cc(C(F)(F)F)c1 [Example 1-1, {(R)-5-[(3-fluoro-5-trifluoromethyl-benzenesulfonyl)-methyl-amino]-5,6,7,8-tetrahydro-naphthalen-1-yloxy}-acetic acid]
	2.42	O=C(O)COc1cccc2c1CCC[C@H]2NS(=O)(=O)c1cc(F)cc(F)c1 [Example 10-5, [(R)-5-(3,5-difluoro-benzenesulfonylamino)-5,6,7,8-tetrahydro-naphthalen-1-yloxy]-acetic acid]
	0.126	O=C(O)COc1cccc2c1CCC[C@H]2NS(=O)(=O)c1cc(Cl)cc(Cl)c1 [Example 10-1, [(R)-5-(3,5-dichloro-benzenesulfonylamino)-5,6,7,8-tetrahydro-naphthalen-1-yloxy]-acetic acid]
	0.342	O=C(O)COc1cccc2c1CCC[C@H]2NS(=O)(=O)c1cc(F)cc(C(F)(F)F)c1 [Example 10-12, [(R)-5-(3-fluoro-5-trifluoromethyl-benzenesulfonylamino)-5,6,7,8-tetrahydro-naphthalen-1-yloxy]-acetic acid]
3.01	> 10	CCN(CC)c1cc(C(F)(F)F)cc(S(=O)(=O)N(C)[C@@H]2CCCc3c(OCC(=O)O)cccc32)c1 [Example 4-2, {(R)-5-[(3-diethylamino-5-trifluoromethyl-benzenesulfonyl)-methyl-amino]-5,6,7,8-tetrahydro-naphthalen-1-yloxy}-acetic acid]
